Measured values from patent US20130281313A1, “PROGNOSTIC AND/OR PREDICTIVE BIOMARKERS AND BIOLOGICAL APPLICATIONS THEREOF” (INSTITUT GUSTAVE ROUSSY, priority 2010, published 2013).

Tests used:
[1] = tested on: A549 cells; assay: Genome-wide siRNA screen: residual proliferation (WST-1) of siRNA-transfected cells upon CDDP; format: cell-based, human; conditions: 50 μM CDDP for 24 hours
Description: High-throughput operations were carried out by means of a Microlab STAR automated workstation (Hamilton, Reno, USA) placed under a class II safety cabinet. In all screening rounds, each siRNA was tested in triplicates that were distributed to three different plates. Prior to cell seeding, transfection complexes were individually prepared in a V-bottomed 96-well deep well plate. In brief, each siRNA (as retrieved from the Human Whole Genome siRNA Set Version 1.0) was dissolved in a total volume of 122.5 μL serum-free phenol-red free DMEM/F12 medium (final concentration=10 nM, conditions for 7 wells). Similarly, an appropriate amount of HiPerFect® transfection reagent (Qiagen) was diluted in serum-free phenol-red free DMEM/F12 medium (0.25 μL per well). […] After additional 24 h, the 3 plates that were not subjected to cell death induction were assessed for both plasma membrane breakdown and residual cell proliferation, while the 3 plates that were treated with cell death-inducing stimuli were monitored for residual proliferation only (see next section). […]
In the second round of screen (4 siRNAs×1,000 transcripts=4,000 siRNAs), the effects of individual siRNAs were analyzed and scored as described above. […]

[2] = tested on: TP53 (phospho-Ser15, phospho-Ser46), caspase-3, caspase-9; assay: Immunoblotting of the intrinsic apoptosis pathway; format: cell-based, human; conditions: A549 cells, sub-apoptotic (25 μM) CDDP in the presence of PN
Description: For the preparation of total protein extracts A549 cells were washed with cold PBS and lysed in a buffer containing 1% NP40, 20 mM HEPES (pH 7.9), 10 mM KCl, 1 mM EDTA, 10% glycerol, 1 mM orthovanadate, 1 mM PMSF, 1 mM dithiothreitol, 10 μg/mL aprotinin, 10 μg/mL leupeptin, and 10 μg/mL pepstatin, according to established protocols {Zermati, 2007}. […]

SMILES	cells killed [1]	activating phosphorylation of TP53 on serines 15 and 46 [2]	activation of caspases-3 and -9 [2]
N.N.[Cl][Pt][Cl] [CDDP, cis-diammineplatinum(II) dichloride]	~45%	–	–
Cc1ncc(CO)c(CO)c1O [PN, pyridoxine]	–	an increased activating phosphorylation of TP53 on serines 15 and 46	an increased activation of caspases-3 and -9
